Reference: ChEMBL document CHEMBL1201862, “PubChem BioAssay data set” (2004)
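Values below derive from 48-hour exposures of cells grown in 96-well plates, with endpoints linearly interpolated between the two concentrations bracketing the appropriate inhibition level. GI50 is the concentration that inhibits growth by half.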 Calls of active or inactive are those of the source. No stated cut-off is given here; in the data, active = GI50 up to about 1.1 µM and inactive = higher.

Legend:
Test in all cases: inhibition of tumour cell growth, NCI panel, 48 h
DMS-114 = system: DMS-114
DLD-1 = system: DLD-1
KM-20L2 = system: KM-20L2
HOP-18 = system: HOP-18
XF498 = system: XF498
RXF 631 = system: RXF 631
DMS-273 = system: DMS-273
LXFL 529 = system: LXFL 529

Measured: GI50

CC(=O)N(C)C=C1C(=O)N(C)C(=O)N(C)C1=O
inactive: DMS-114 > 100 µM | DLD-1 > 100 µM | KM-20L2 > 100 µM | HOP-18 > 100 µM | XF498 > 100 µM | RXF 631 > 100 µM | DMS-273 > 100 µM | LXFL 529 > 100 µM

Cc1c(C(=O)C/C(=N/NC(=O)CC#N)C(N)=O)[n+]([O-])c2ccccc2[n+]1[O-]
inactive: DMS-114 23.8 µM | DLD-1 29.1 µM | KM-20L2 45.2 µM | HOP-18 > 100 µM | XF498 > 100 µM | RXF 631 87.3 µM | DMS-273 42 µM | LXFL 529 74.1 µM

N#Cc1ccc(/C=C(/C(=O)c2ccccc2)c2ccccc2)cc1
inactive: DMS-114 12.9 µM | DLD-1 6.58 µM | KM-20L2 11.2 µM | HOP-18 27.5 µM | XF498 10.1 µM | RXF 631 11.1 µM | DMS-273 4.82 µM | LXFL 529 4.78 µM

O=C1c2ccccc2C(=O)c2c1ccc1c2N=C(c2ccc(Br)cc2)CC(c2cccc3ccccc23)N1 (stereo not given)
inactive: DMS-114 > 100 µM | DLD-1 > 100 µM | KM-20L2 > 100 µM | HOP-18 > 100 µM | XF498 > 100 µM | RXF 631 > 100 µM | DMS-273 > 100 µM | LXFL 529 > 100 µM

NC(=O)c1ncn2c1NCC1OC2C(O)C1O (stereo not given)
inactive: DMS-114 > 100 µM | DLD-1 > 100 µM | KM-20L2 > 100 µM | HOP-18 > 100 µM | XF498 > 100 µM | RXF 631 > 100 µM | DMS-273 > 100 µM | LXFL 529 > 100 µM
